According to patent US10196668B2, “Reagents and methods for screening MPS I, II, IIIA, IIIB, IVA, VI, and VII” (University of Washington through its Center for …, priority 2013, dated 2019):
Values joined by “and” are separate entries in the source; they are usually repeats but may differ in a detail not shown here. Equal entries are not always repeated. Structures can show the parent of a compound that is named as a salt.

Key:
Type in all cases: biochemical
arylsulfatase B (ASB) = target: T1, arylsulfatase B (ASB) (Homo sapiens, UniProt P15848); assay: ASB (MPS-VI) assay with beta-NGA and Z-PUG-NAc, UHPLC-MS/MS
T1 construct: from tissue; host or cells: dried blood spot (3 mm punch)
T1 sequence (P15848 37-533): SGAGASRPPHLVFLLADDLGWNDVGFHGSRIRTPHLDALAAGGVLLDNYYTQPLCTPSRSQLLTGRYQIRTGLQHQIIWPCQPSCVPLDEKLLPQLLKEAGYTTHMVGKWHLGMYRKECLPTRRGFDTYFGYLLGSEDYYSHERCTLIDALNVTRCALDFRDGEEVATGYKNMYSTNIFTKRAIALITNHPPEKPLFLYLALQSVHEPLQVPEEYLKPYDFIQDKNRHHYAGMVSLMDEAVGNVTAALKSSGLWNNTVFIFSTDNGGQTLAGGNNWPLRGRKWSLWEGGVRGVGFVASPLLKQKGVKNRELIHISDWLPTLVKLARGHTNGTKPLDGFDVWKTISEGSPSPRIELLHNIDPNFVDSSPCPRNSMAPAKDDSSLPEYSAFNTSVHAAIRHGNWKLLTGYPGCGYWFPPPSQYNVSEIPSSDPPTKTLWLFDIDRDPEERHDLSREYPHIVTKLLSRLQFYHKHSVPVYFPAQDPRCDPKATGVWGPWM
Experimental: Having established the action of human hexosaminidase A on the ASB substrate, the ASB assay was developed, using the same approach developed for GALNS, namely adding beta-NGA and Z-PUG-NAc. The experiments were carried out as for the GALNS assays (see Example 10) but with 1 mM ASB substrate replacing the GALNS substrate.
(§1) Experiment 1. A 3 mm punch of a dried blood spot from a random newborn is incubated with 0.03 mL of assay cocktail consisting of 1 mM GALNS substrate in 50 mM ammonium formate pH 4.0 containing 7.5 mM barium acetate, 5.0 mM cerium acetate, 1 mM Z-PUG-NAc, and 0.01 mg of bacterial beta-N-acetylgalactosaminidase. The mixture also contains 0.005 mM internal standard. After 16 hrs at 37° C. with shaking, the mixture is quenched with 0.12 mL of acetonitrile and the sample plate is centrifuged to pellet the precipitate. Supernatant (0.12 mL) is transferred to a new plate, and 0.12 mL of water is added. The plate is placed on the autosampler of the UHPLC-MS/MS instrument (Waters Xevo TQ MS/MS with a Waters Acquity UHPLC system). A portion of the sample (0.01 mL) is injected, and the GALNS product (substrate minus sulfate), the internal standard, and the aglycones derived from the GALNS product and internal standard are quantified by multiple reaction monitoring (MS/MS). Note the internal standard added, like the GALNS product, is converted to its aglycone by the addition of bacterial beta-N-acetylgalactosaminidase.

[1] = target: T2, Recombinant human hexosaminidase A (Homo sapiens, UniProt P06865); assay: Action of hexosaminidase A on ASB substrate, UHPLC-MS/MS; conditions: 1 mM ASB substrate, 100 mM ammonium formate pH 5.6, 5 hrs at 37° C.
T2 sequence (P06865 89-529): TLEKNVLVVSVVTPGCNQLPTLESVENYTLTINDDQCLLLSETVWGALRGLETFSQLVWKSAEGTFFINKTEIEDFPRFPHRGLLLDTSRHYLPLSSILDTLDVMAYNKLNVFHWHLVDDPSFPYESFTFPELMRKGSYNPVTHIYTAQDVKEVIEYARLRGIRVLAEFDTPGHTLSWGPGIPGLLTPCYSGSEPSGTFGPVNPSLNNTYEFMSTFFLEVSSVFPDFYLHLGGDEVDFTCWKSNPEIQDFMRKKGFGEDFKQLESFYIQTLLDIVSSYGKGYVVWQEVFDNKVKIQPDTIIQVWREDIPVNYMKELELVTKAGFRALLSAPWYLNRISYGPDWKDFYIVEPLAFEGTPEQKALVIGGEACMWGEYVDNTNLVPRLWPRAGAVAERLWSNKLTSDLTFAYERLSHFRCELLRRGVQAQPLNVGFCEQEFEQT
T2 sequence (P07686 122-556 partner): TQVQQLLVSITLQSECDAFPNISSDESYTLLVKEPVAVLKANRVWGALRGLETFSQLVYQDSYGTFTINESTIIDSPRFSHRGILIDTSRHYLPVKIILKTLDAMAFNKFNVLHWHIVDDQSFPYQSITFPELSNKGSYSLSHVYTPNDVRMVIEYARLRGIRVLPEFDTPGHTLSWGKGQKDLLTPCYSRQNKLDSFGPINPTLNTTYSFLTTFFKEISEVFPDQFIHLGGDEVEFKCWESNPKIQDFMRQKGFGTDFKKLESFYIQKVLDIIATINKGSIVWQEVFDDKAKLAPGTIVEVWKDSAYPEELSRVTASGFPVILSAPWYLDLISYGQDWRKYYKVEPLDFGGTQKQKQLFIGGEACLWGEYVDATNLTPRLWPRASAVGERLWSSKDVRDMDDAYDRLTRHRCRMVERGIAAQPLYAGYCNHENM
Experimental: The mixture includes 1 mM ASB substrate in 100 mM ammonium formate buffer, pH 5.6 containing the indicated amount of hexosaminidase. After incubation for 5 hrs at 37° C., the mixture is analyzed by UHPLC-MS/MS. The aglycone signal is not due to contamination of the substrate with aglycone because no aglycone is seen when hexosaminidase A is omitted. The aglycone is not the result of cleavage of the ASB in the electrospray ionization source of the mass spectrometer because the amount of aglycone increases with increasing hexosaminidase A (FIG. 1), and the UHPLC retention time of the aglycone matches that of an authentic aglycone, and this is different than the retention time of the ASB substrate. Thus, hexosaminidase A acts on the ASB substrate to produce algycone. Because hexosaminidase A acts on ASB substrate to produce algycone, this enzyme cannot be used in a coupled assay of ASB, and furthermore it is important to inhibit hexosaminidase A so as not to generate aglycone directly from the ASB substrate.

human hexosaminidase A = target: T3, human hexosaminidase A (Homo sapiens, UniProt P06865+P07686); assay: Block of endogenous hexosaminidase A in dried blood spots in the GALNS assay; conditions: 1 mM Z-PUG-NAc in assay cocktail with dried blood spot
T3 construct: from tissue; host or cells: dried blood spot from a random newborn
T3 sequence (P06865 89-529): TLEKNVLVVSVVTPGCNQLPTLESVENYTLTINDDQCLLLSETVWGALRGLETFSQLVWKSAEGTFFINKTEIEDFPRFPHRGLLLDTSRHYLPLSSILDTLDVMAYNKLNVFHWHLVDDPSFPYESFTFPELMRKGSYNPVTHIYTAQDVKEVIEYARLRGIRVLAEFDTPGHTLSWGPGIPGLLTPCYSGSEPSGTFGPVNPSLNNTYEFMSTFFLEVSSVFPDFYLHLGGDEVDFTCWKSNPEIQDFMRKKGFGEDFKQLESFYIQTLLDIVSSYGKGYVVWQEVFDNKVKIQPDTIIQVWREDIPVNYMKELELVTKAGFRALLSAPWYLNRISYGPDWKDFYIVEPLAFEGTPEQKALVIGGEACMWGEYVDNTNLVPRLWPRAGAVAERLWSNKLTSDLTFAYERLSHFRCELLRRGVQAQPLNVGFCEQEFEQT
T3 sequence (P07686 122-556): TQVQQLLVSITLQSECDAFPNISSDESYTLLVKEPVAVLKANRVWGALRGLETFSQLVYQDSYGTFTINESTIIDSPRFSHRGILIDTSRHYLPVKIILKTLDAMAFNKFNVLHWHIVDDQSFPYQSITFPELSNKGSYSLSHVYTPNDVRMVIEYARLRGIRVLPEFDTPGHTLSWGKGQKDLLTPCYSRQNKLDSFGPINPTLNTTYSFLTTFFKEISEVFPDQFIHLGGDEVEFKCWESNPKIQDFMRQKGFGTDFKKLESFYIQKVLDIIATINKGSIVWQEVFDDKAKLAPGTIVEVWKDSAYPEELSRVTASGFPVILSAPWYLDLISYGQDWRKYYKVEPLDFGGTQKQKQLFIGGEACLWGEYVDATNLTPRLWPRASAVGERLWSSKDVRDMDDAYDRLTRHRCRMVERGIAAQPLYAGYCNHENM
Experimental: as §1

[2] = target: T4, N-acetylgalactosamine-4-sulfate-sulfatase (MPS-VI enzyme) (Homo sapiens, UniProt P15848); assay: MPS-VI enzyme assay with dried blood spot punch, tandem mass spectrometry
T4 construct: from tissue; host or cells: dried blood spot (3 mm punch)
T4 sequence (P15848 37-533): as the sequence (P15848 37-533) above
Experimental: The original and alternative MPS-VI substrates were compared in side-by-side enzyme assays as follows: 1 mM substrate, 10 uM internal standard in 30 uL of buffer (100 mM ammonium formate, pH 4.0, 7.5 mM barium(II) acetate, 5.0 mM cerium(III) acetate). A 3 mm punch of a dried blood spot was added, and the mixtures were incubated with shaking for 16 hours at 37 deg C. The reactions were quenched by addition of an aqueous suspension (1:1) of DEAE cellulose (Whatmann DE52) (100 uL), followed by addition of 400 uL of ethyl acetate. The mixture was mixed by up and down pipetting a few times and then centrifuged (10 min at 3000 rpm) to separate the liquid layers and pellet the DE52. A 300 uL portion of the upper ethyl acetate layer was transferred to a new well, and solvent was removed by evaporation with a stream of oil-free air. The residue was taken up in 100 uL of methanol/5 mM aqueous ammonium formate (80/20, v/v) and infused into the tandem mass spectrometer. The barium and cerium salts are present to precipitate free sulfate and phosphate present in the dried blood spot since these anions cause production inhibition of the MPS-VI enzyme. The DE52 is added to trap remaining substrate so only product and internal standard (which are charge neutral) are extracted into ethyl acetate. […]

[3] = target: T5, iduronic acid 2-sulfatase (Homo sapiens, UniProt P22304); assay: Sulfatase assay for MPS-II with second enzyme alpha-L-iduronidase; conditions: with iduronidase versus without
T5 construct: from tissue; host or cells: dried blood spot (3 mm punch)
T5 sequence (P22304 34-550): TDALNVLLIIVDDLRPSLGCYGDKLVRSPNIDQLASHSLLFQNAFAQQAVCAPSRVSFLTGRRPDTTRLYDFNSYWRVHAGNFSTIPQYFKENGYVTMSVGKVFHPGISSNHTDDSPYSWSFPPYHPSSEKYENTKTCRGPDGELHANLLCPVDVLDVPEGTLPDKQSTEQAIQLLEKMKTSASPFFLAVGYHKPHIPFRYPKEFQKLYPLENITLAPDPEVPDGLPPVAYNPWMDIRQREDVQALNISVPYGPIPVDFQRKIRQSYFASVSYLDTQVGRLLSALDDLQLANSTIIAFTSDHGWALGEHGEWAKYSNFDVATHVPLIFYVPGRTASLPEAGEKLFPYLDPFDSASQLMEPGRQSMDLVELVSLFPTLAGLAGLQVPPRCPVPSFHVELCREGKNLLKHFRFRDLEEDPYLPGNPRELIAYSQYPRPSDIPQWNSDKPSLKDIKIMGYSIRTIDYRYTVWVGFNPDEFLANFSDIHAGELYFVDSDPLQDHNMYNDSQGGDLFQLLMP
Experimental: In the assay, a second enzyme, alpha-L-iduronidase (a glycohydrolase) is added to the assay cocktail, which converts Initial MPS-II Product to Final MPS-II Product by removing the iduronic acid residue leaving the aglycone. The iduronidase can be present in the assay cocktail that is incubated with the dried blood spot, or it can be added after the first incubation with the dried blood spot followed by a second incubation period. The amount of iduronidase added is sufficient to convert all Initial MPS-II Product to Final MPS-II Product. The assay cocktail also contains Initial MPS-II Internal Standard (same as Initial MPS-II Product but, for example, with 5 deuteriums in the benzoyl group), which is converted by iduronidase to Final MPS-II Internal Standard. Both Final MPS-II Product and Final MPS-II Internal Standard are detected by tandem mass spectrometry, which enables the amount of Final MPS-II Product to be quantified. […] The analytes are detected by multiple reaction monitoring.
Thus the assay sensitivity has been improved by about 100-fold. […] With the assay of the invention, this desulfation is of no concern because the product being detected is the aglycone (Final MPS-II Product).

[4] = Expt. 1: 3 mm dried blood spot punch, 1 mM Z-PUG-NAc, 0.01 mg beta-NGA
[5] = Expt. 2: 3 mm filter paper punch (no blood), 1 mM Z-PUG-NAc, 0.01 mg of bacterial enzyme
[6] = Expt. 3: 3 mm dried blood spot punch, 1 mM Z-PUG-NAc, no beta-NGA
[7] = Expt. 4: 3 mm filter paper punch (no blood), nothing added

CCCCC(=O)N(CCCCCNC(=O)c1ccccc1)CCC(=O)Nc1ccc(OC2OC(CO)C(OS(=O)(=O)O)C(O)C2NC(C)=O)cc1 (stereo not shown) [ASB substrate]
ASB product (substrate without sulfate) peak area (arylsulfatase B (ASB); [4]): 154,000
aglycone peak area (product without sugar) (arylsulfatase B (ASB); [4]): 1,570,000
ASB product (substrate without sulfate) peak area (arylsulfatase B (ASB); [5]): 404
aglycone peak area (product without sugar) (arylsulfatase B (ASB); [5]): 58,300
ASB product (substrate without sulfate) peak area (arylsulfatase B (ASB); [6]): 371,000
aglycone peak area (product without sugar) (arylsulfatase B (ASB); [6]): 39,900
ASB product (substrate without sulfate) peak area (arylsulfatase B (ASB); [7]): 3,340 and 3,430
aglycone peak area (product without sugar) (arylsulfatase B (ASB); [7]): 33,800
aglycone release from substrate by hexosaminidase A [1]: acts on the ASB substrate to liberate aglycone

CC(=O)N[C@H]1/C(=N/OC(=O)Nc2ccccc2)O[C@H](CO)[C@@H](O)[C@@H]1O [Z-PUG-NAc, (Z)—O-(2-acetamido-2-deoxy-D-glucopyranosylidene)-amino N-phenylcarbamate]
inhibition of hexosaminidase A (human hexosaminidase A): fully block hexosaminidase A

CCCCC(=O)N(CCCCCNC(=O)c1ccccc1)CCC(=O)Nc1ccc(OC2OC(CO)C(OS(=O)(=O)O)C(O)C2NC(C)=O)cc1 [Alternative MPS-VI, Sodium (2R,3R,4R,5R,6S)-5-acetamido-6(4(3-(N (5-benzamidopentyl)-pentanamido)propanamido)phenoxy)-4-hydroxy-2-(hydroxymethyl)tetrahydro-2H-pyran-3-yl sulfate]
Enzymatic Activity ([2]; 1 mM substrate, 3 mm dried blood spot punch, pH 4.0, 16 hours at 37 deg C): 1.5 umole/hr/L blood
blood-no blood assay ratio ([2]; activity with dried blood spot punch to that with blood-free punch): 77.9

B1: iduronidase: human alpha-L-iduronidase (a glycohydrolase) obtained by overexpression in mammalian cells, second enzyme (protein, UniProt P35475 28-653, looked up)
Alpha-L-iduronidase: APHLVHVDAARALWPLRRFWRSTGFCPPLPHSQADQYVLSWDQQLNLAYVGAVPHRGIKQVRTHWLLELVTTRGSTGRGLSYNFTHLDGYLDLLRENQLLPGFELMGSASGHFTDFEDKQQVFEWKDLVSSLARRYIGRYGLAHVSKWNFETWNEPDHHDFDNVSMTMQGFLNYYDACSEGLRAASPALRLGGPGDSFHTPPRSPLSWGLLRHCHDGTNFFTGEAGVRLDYISLHRKGARSSISILEQEKVVAQQIRQLFPKFADTPIYNDEADPLVGWSLPQPWRADVTYAAMVVKVIAQHQNLLLANTTSAFPYALLSNDNAFLSYHPHPFAQRTLTARFQVNNTRPPHVQLLRKPVLTAMGLLALLDEEQLWAEVSQAGTVLDSNHTVGVLASAHRPQGPADAWRAAVLIYASDDTRAHPNRSVAVTLRLRGVPPGPGLVYVTRYLDNGLCSPDGEWRRLGRPVFPTAEQFRRMRAAEDPVAAAPRPLPAGGRLTLRPALRLPSLLLVHVCARPEKPPGQVTRLRALPLTQGQLVLVWSDEHVGSKCLWTYEIQFSQDGKAYTPVSRKPSTFNLFVFSPDTGAVSGSYRVRALDYWARPGPFSDPVPYLEVPVPRGPPSPGNP
improvement of assay sensitivity by second enzyme [3]: about 100 fold
